{"source": "patent US11419870B2", "about": "“Intermittent dosing of MDM2 inhibitor” (Novartis AG, priority 2014, dated 2022)", "key": {"bone marrow": {"system": "bone marrow", "experiment": "Bone marrow depletion and recovery after i.v. treatment (sternum sections)", "format": "in vivo, rat", "conditions": "i.v. 20 mg/kg", "method": "All tissues were processed to FFPE according to routine procedures and following fixation, rat sternum was decalcified in Citrate/EDTA buffer for 5 days, with buffer exchange every 24 h. Sections were cut at 3 μm using a microtome. p21 and cleaved Caspase-3 immunohistochemistry was performed on a Ventana Discovery XT automated immunostainer using the OmniMap anti Mouse or Rabbit HRP secondary reagent and the ChromoMap DAB chromogen system (Ventana/Roche Diagnostics GmbH, Mannheim, Germany). Antigen retrieval was done by using Cell Conditioning Discovery CC1 (Ventana/Roche Diagnostics) at mild (95° 8 min+100° 20 min, for cleaved Caspase-3) or standard (95° 8 min+100° 36 min, for p21) conditions. The primary antibody was applied manually at the desired dilution in Dako antibody diluent, followed by incubation for 1 hour at room temperature. Corresponding negative controls were incubated with AbD only. Counterstaining of sections was done using hematoxylin (Ventana/Roche Diagnostics). After the automated staining run, slides were dehydrated in a graded series of ethanol, cleared in xylene and mounted with Pertex mounting medium."}, "Rat Bbc3 (PUMA)": {"system": "Rat Bbc3 (PUMA)", "experiment": "mRNA in situ hybridization of host tissues", "format": "in vivo", "conditions": "i.v. 20 mg/kg", "method": "In situ hybridization was performed using the QuantiGene ViewRNA FFPE Assay kit (Affymetrix/Panomics) following the manufacturer's protocol. Gene-specific probe sets for rat Ubc (Ubiquitin C) and Bbc3 (PUMA) mRNAs were custom-designed and synthesized by Affymetrix. Bbc3 probes were used in type 1/Fast Red and Ubc probes were used in type 6/Fast Blue. Slides were processed strictly following the QuantiGene protocol. […] Briefly, five micrometer sections were cut, fixed in 10% formaldehyde, deparaffinized and rehydrated. In order to increase accessibility to mRNAs, slides were then boiled in pre-treatment solution (Affymetrix) and digested with protease QF (Affymetrix) at optimal conditions. Sections were then hybridized for 3 h at 40° C. with custom-designed QuantiGene ViewRNA probes against Bbc3 and the control gene Ubc. A no-probe sample was utilized as a negative control per the Affymetrix manual's recommendations. […] LP-AP type 6 probe detection of signal was done with Fast Blue substrate (blue dots, Cy5 fluorescence) for 30 mn at RT in the dark, followed by LP-AP type 1 probe detection of signal with Fast Red Substrate (red dots, Cy3 fluorescence) for 30 mn at 40° C. […]"}, "Cdkn1 a (p21)": {"system": "Cdkn1 a (p21)", "experiment": "Pharmacodynamic qRT-PCR: p21 mRNA induction in SJSA-1 tumor", "format": "in vivo, nude rat", "description": "At the times indicated, animals were anaesthetized by exposure to 2-3% v/v isofluorane in medical oxygen: • Either the animal was killed without recovering from anesthetic after blood sampling. Blood was collected into commercially prepared EDTA coated tubes (Milian, cat #TOM-14C) in order to extract plasma. The tissues were excised, weighed and rapidly frozen in liquid nitrogen. • Or a tumor biopsy was collected by using a biopsy gun and flushing the needle with RLT buffer in Barney rubble tubes (Covaris, cat #520048). In addition, 20 μl of blood may have been collected from the tail vein and diluted in 20 μl of water. After recovery of anesthesia, animals were transferred in their respective cages.\nFrozen tissues were cryogenic dry pulverized and biopsies were sonicated using the CryoPrep™ system (model CP-02) from Covaris. More specifically, frozen tissues were transferred to disposable tubes called TissueTubes™, placed in the CryoPrep™ system and then pulverized using the appropriate impact setting. The resulting powder was collected with a spatula and weighed for further processing (mRNA purification or quantification of compound in tissues). The biopsies were flushed in a Barney rubble glass tubes with 350 μl of RLT buffer and placed in the Covaris for sonication (1 min per biopsy). The resulting lysate was transferred into a QIAshredder (79654, Qiagen) column for RNA extraction.\nTotal RNA was purified from cell pellets using the QIAshredder (79654, Qiagen) and RNeasy Mini Kit (74106, Qiagen) according to the manufacturer's instructions, with the exception that no DNA digestion was performed. Total RNA was eluted with 50 μL of RNase-free water. Total RNA was quantitated using the spectrophotometer ND-1000 Nanodrop®. The qRT-PCR (Quantitative Reverse Transcriptase Polymerase Chain Reaction) was set up in triplicate per sample using the One-Step RT qPCR Master Mix Plus (RT-QPRT-032X, Eurogentec), with either control primers and primers for the target, namely TaqMan Gene Expression assays (20× probe dye FAM™ (or VIC)-TAMRA (or MGB); Applied Biosystems) listed in Table 1."}, "[1]": {"system": "white blood cells (WBC), neutrophils and platelets", "experiment": "White blood cells, neutrophils and platelets count (Sysmex)", "format": "in vivo, nude rat", "description": "The white blood cells (WBC), neutrophils and platelets were counted using a Sysmex (XT-2000i).\nBlood was collected into commercially prepared EDTA coated microtubes (BD Microtainer, cat #365975)."}, "[2]": {"conditions": "p.o. q3w 27 mg/kg, before the second treatment"}}}
{"smiles": "COc1ncc(-c2nc3c(n2C(C)C)[C@H](c2ccc(Cl)cc2)N(c2cc(Cl)cn(C)c2=O)C3=O)c(OC)n1", "note": "[Compound A, (S)-5-(5-Chloro-1-methyl-2-oxo-1,2-dihydro-pyridin-3-yl)-6-(4-chloro-phenyl)-2-(2,4-dimethoxy-pyrimidin-5-yl)-1-isopropyl-5,6-dihydro-1H-pyrrolo[3,4-d]imidazol-4-one]", "values": [{"measurement": "bone marrow state", "setting": "bone marrow; 14 days post treatment", "value": "severe bone marrow depletion"}, {"measurement": "bone marrow recovery", "setting": "bone marrow; day 22", "value": "partial recovery"}, {"measurement": "time of maximum increase in Puma (Bbc3) mRNA", "setting": "Rat Bbc3 (PUMA); jejunum section, post last treatment", "value": 3, "unit": "h"}, {"measurement": "time of return of Puma mRNA to baseline", "setting": "Rat Bbc3 (PUMA); post treatment", "value": 7, "unit": "days"}, {"measurement": "p21 mRNA expression in tumor", "setting": "Cdkn1 a (p21); after first p.o. treatment, 20 and 27 mg/kg", "value": "dose-dependently increased"}, {"measurement": "p21 mRNA expression increase in tumor", "setting": "Cdkn1 a (p21); after first single i.v. treatment 20 mg/kg", "value": "more than 50 fold"}, {"measurement": "p21 mRNA expression max", "setting": "Cdkn1 a (p21); single i.v. 20 mg/kg, 24 h post treatment, tumor", "value": 200, "unit": "fold"}, {"measurement": "p21 mRNA induction Emax", "setting": "Cdkn1 a (p21); single oral 27 mg/kg, 48 h post treatment, tumor", "value": 180, "unit": "fold"}, {"measurement": "recovery of WBCs, neutrophils and platelets", "setting": "[1]; i.v. q3w 18.2 mg/kg, day 21 post second treatment", "value": "only partially recovered"}, {"measurement": "WBCs, neutrophils and platelets", "setting": "[1]; i.v. q3w 20 mg/kg, after the first treatment", "value": "dramatic decrease"}, {"measurement": "WBCs, neutrophils and platelets", "setting": "[1]; i.v. q3w 20 mg/kg, after the second treatment", "value": "extremely low level close to 0"}, {"measurement": "recovery of WBCs, neutrophils and platelets", "setting": "[1]; i.v. q3w 20 mg/kg, day 21 post treatment, most rats", "value": "only partially recovered"}, {"measurement": "WBCs, neutrophils and platelets", "setting": "[1]; i.v. q3w 13.7 and 18.2 mg/kg, after the first treatment", "value": "strong decrease"}, {"measurement": "recovery of WBCs, neutrophils and platelets", "setting": "[1]; i.v. q3w 13.7 and 18.2 mg/kg, day 21 post treatment", "value": "fully recovered"}, {"measurement": "recovery of WBCs and platelets", "setting": "[1]; p.o. q3w 20 mg/kg, before the second treatment", "value": "fully recovered"}, {"measurement": "recovery of WBCs", "setting": "[1]; [2]", "value": "only partially"}, {"measurement": "recovery of platelets", "setting": "[1]; [2]", "value": "fully recovered"}, {"measurement": "WBCs, neutrophils and platelets", "setting": "[1]; p.o. q3w 20 and 27 mg/kg", "value": "dose-dependent decrease"}]}
